Literature values, collected in patent US20210350875A1, “HIGH THROUGHPUT METHOD AND SYSTEM FOR MAPPING INT[…] DIAGRAMS” (The Trustees of Princeton University, priority 2018, published 2021).

System: phase separation
Settings: positive control agent, 10 wells, FIG. 2B

hexanediol
inhibition of phase separation: fully inhibit phase separation
